# PMC12974487, “Inhibition of FicD-mediated AMPylation and deAMPylation by isoprenoid diphosphates” (Proceedings of the National Academy of Sciences of the …, 2026)
# Target: T1, FicD^L258D (Homo sapiens, UniProt Q9BVA6, L258D)
# T1 construct: soluble ER luminal domain (residues 105 to 458) of wild-type human FicD and three mutants; 6xHis-Sumo (N, cleaved yes); made in house; host or cells: Rosetta(DE3) E. coli
# T1 sequence (Q9BVA6 105-458 L258D): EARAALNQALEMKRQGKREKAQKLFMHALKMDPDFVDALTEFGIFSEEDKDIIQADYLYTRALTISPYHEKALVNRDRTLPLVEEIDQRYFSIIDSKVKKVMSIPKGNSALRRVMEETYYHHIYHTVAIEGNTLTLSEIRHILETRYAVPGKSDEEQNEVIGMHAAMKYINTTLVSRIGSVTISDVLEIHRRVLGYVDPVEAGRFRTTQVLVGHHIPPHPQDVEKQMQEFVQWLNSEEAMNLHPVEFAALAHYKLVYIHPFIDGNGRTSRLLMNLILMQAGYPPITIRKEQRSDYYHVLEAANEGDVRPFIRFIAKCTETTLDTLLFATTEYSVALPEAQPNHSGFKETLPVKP
# Experiment: Isothermal titration calorimetry (ITC) with Δ104hFicD^L258D
# Type: binding
# Conditions: 4 mM MgCl2
# Source text: To further support this notion, we used Isothermal Titration Calorimetry (ITC) to determine the Kd of FPP binding. […] In these experiments, the interaction between FPP and Mg^2+ generated endothermic peaks that interfered with detecting the interaction between FPP, Mg^2+, and FicD (Fig. 3, Upper). The stoichiometry of FPP binding to FicD was consistently <0.85, which may indicate that Mg^2+ was not saturating. Because the endothermic interaction between Mg^2+ and FPP limited the quantity of MgCl2 we could add, the measured Kd could be larger than the true value.
# Fig. 3. ITC with FicD and Farnesyl-pyrophosphate. Representative ITC thermogram for FPP binding to Δ104hFicD^L258D (Upper). […] Dissociation constants (Kd) of individual replicates and global fitting of triplicate isotherms are reported with 1σ error intervals in parenthesis. TEXT PRINTED IN THE PICTURE: no label printed: Kd (nM): 32.3 (15.6, 54.9) (Replicate 1); Kd (nM): 25.6 (10.1, 47.7) (Replicate 2); Kd (nM): 45.2 (29.4, 68.8) (Replicate 3); Kd (nM): 60.3 (23.1, 126.3) (Global) DOUBTS OF THE COPYIST ABOUT THIS PICTURE: The picture prints no substance label; the table rows are replicates and a global fit of one measurement, so all four Kd values are given under one unlabeled substance. […]
# Isothermal Titration Calorimetry
# Proteins were dialyzed against 25mM HEPES pH 7.4/100mM KCl/10% glycerol prior to titration.
# Dialyzed proteins were then spun down at 21,000G for 15 minutes at 4C to remove trace insoluble material. The protein concentration was measured spectrophotometrically and then diluted to working concentration with 25mM HEPES pH 7.4/100mM KCl/10% glycerol. MgCl2 was added to proteins to a final concentration of 4mM. ITC experiments were performed in a Micro-Cal PEAQ-ITC (Malvern Panalytical, Worcestershire, UK) calorimeter with a stirred 206.2 μL reaction cell held at 20 °C. 250μM FPP was titrated into 25uM Δ104hFicL258D with 750rpm stirring. The first injection was 0.5 μL, followed by twenty 1.9 μL injections. ITC data were integrated and baseline corrected using NITPIC 2.1.5 (10, 11). Integrated data was globally analyzed in SEDPHAT 15.b (12) using a model considering a single class of binding sites. […]
# 10% Lithium dodecyl sulfate, 50% glycerol, 50mM DTT, 0.05% Bromophenol blue) and then heated […]
# For deAMPylation assays with FicD and BiP, Δ26hBiPT229A was in-vitro AMPylated by […]
# 5mM MgCl2, 500uM ATP, 0.5% CHAPS, 1mM DTT. After one hour of incubation at 30-37C, the entire reaction mix was transferred into an Amicon 0.5mL 50kDa MWCO concentrator (cat no.
# 7.4/150mM NaCl/10% glycerol/1mM DTT was added to the concentrated AMPylation reaction and then spun down again at 14,000 x g at 4C for 5-10 minutes. This step was repeated four times to buffer exchange AMPylated Δ26hBiPT229A.
# Δ104hFicDWT and Δ26hBiPT229A-AMP were combined at a ratio of 1:80 in buffer containing 25mM HEPES pH 7.4, 100mM KCl, 5mM MgCl2, 1mM DTT and the indicated small molecule where applicable. Reactions were incubated at 37C for 1 hour and stopped by the addition EDTA. 5X SDS sample buffer (250mM Tris pH 6.8, 10% Lithium dodecyl sulfate, 50% glycerol, 50mM DTT, 0.05% Bromophenol blue) was then added to the reactions and reactions were heated for 5 minutes at […]
# For in-vitro AMPylation assays with VopS and CDC42, Δ30VopS and GST-CDC42 – provided by a previous lab member – were combined at a 1:80 molar ratio in 50mM Tris pH 7.4/100mM NaCl/1mM DTT in the presence of GPP or FPP, where applicable. […]
structure (smiles),measurement,value
"CC(C)=CCC/C(C)=C/CC/C(C)=C/COP(=O)(O)OP(=O)(O)O [FPP, farnesyl-pyrophosphate]",stoichiometry of binding to FicD (ITC),< 0.85
